According to US7504231B2, “Method of alleviating chronic pain via peripheral inhibition of neurotransmitter synthesis” (The Board of Regents of the University of Oklahoma, priority 2001, dated 2009):
Entries after “also recorded” stand apart in the source; their conditions may differ.

Legend:
[1] = system: CFA induced inflammation of the rat hindpaw (mechanical allodynia); test: Pressure sensitivity with von Frey hairs (paw pressure withdrawal threshold) in rats with CFA hindpaw inflammation; type: in vivo; conditions: for Paw pressure withdrawal thresholds (PPWT): CFA+saline 5-12 g, control 50-70 g
Protocol: (§1) For the experiments described in FIGS. 1-16, adult Sprague Dawley male rats, 200-300 g, were used. One set of normal rats was used to evaluate the effects of fixation on glutaminase immunohistochemical staining and for determining antisera dilutions. For all other rats, at day 0, a limited arthritis was induced in the right hindpaw by the intraplantar subcutaneous injection of 75-150 μl of complete Freund's adjuvant (CFA; Mycobacterium butyricum; Sigma) emulsified in saline (1:1). Controls were naive rats that received no injection or rats that received intraplantar injection of saline (75 μl). For peripheral glutaminase inhibition studies, the inflamed hindpaws were injected with glutaminase inhibitors (25 μl) at day 3 of inflammation. Some rats with inflammation received saline injections (25 μl) into the inflamed hindpaw at day 3. […] Efforts were made to minimize the number of animals used for this study.
Two to three days prior to and for the days following CFA injection, rats were tested for pressure sensitivity with von Frey hairs (Semmes-Weinstein monofilaments; Stoelting, Inc.). […] Monofilaments calibrated for specific forces were inserted through the holes underneath the box to probe the plantar surface of the hindpaw, 5 times in 3-4 sec intervals in different places on the plantar surface. Filaments with light force were used first, followed by filaments of increasing force. A filament was slowly applied perpendicularly to the plantar surface until bending of the filament occurred. […] The threshold force was defined as the filament (force) that caused the foot retraction without bending the monofilament three out of five times. Using a conversion table for the filaments, thresholds were reported as gram force.

[2] = system: CFA induced inflammation of the rat hindpaw (thermal hyperalgesia); test: Thermal latencies (Hargreaves' model) in rats with CFA hindpaw inflammation; type: in vivo
Protocol: as §1
Thermal latencies for the footpad plantar surface were determined with the Hargreaves' model (Ugo Basile, Italy). Rats were placed on an elevated glass plate (3 mm) in clear plastic boxes with air holes in the lids and allowed to acclimate for 10 minutes. Radiant heat was applied to the plantar surface of the hindpaw and the withdrawal latency recorded. A second test was followed after 5-10 minutes. All behavioral testing occurred at 21-22° C. with indirect lighting in the testing room. Differences between groups for pressure thresholds and thermal latencies were determined with a Student's t test (p<0.05 for significance) using InStat biological statistics program (GraphPad Software, Inc., San Diego).

[3] = system: CFA induced inflammation of the rat hindpaw (mechanical allodynia); test: Pressure sensitivity with von Frey hairs (paw pressure withdrawal threshold) in rats with CFA hindpaw inflammation; type: in vivo; conditions: for pressure responses after intrathecal inhibitor: injected intrathecally prior to initiation of CFA inflammation, tested 4 days, before ~70 gms, CFA ~10 gms
hindpaw of normal rats = test: DON controls: pressure and thermal sensitivities after intraplantar injection in normal rats; type: in vivo, rat; conditions: DON 10 μMole/25 μl injected on day 3, no inflammation
Protocol: FIG. 10 illustrates DON controls.
Two to three days prior to and for the days following CFA injection, rats were tested for pressure sensitivity with von Frey hairs (Semmes-Weinstein monofilaments; Stoelting, Inc.). Rats were allowed to acclimate for five to ten minutes in a plastic box (25×25×25 cm) with 6 mm holes spaced every 6 mm [Pitcher et al, 1999a,b]. Monofilaments calibrated for specific forces were inserted through the holes underneath the box to probe the plantar surface of the hindpaw, 5 times in 3-4 sec intervals in different places on the plantar surface. Filaments with light force were used first, followed by filaments of increasing force. A filament was slowly applied perpendicularly to the plantar surface until bending of the filament occurred. […] The threshold force was defined as the filament (force) that caused the foot retraction without bending the monofilament three out of five times. […]
Thermal latencies for the footpad plantar surface were determined with the Hargreaves' model (Ugo Basile, Italy). […] Radiant heat was applied to the plantar surface of the hindpaw and the withdrawal latency recorded. […] Differences between groups for pressure thresholds and thermal latencies were determined with a Student's t test (p<0.05 for significance) using InStat biological statistics program (GraphPad Software, Inc., San Diego).

[4] = system: GLU-IR fibers in the paw skin; test: Glutamate immunohistochemistry of hindpaw skin after CFA inflammation; type: in vivo, rat; conditions: CFA + inhibitor, skin after 7 days; control very little, CFA+saline many intense fibers
Protocol: (§2) The skin from the hindpaws were also processed for GLU and GT immunohistochemistry after 7 days (FIG. 12). Control rats had very little GLU or GT-immunoreactive (IR) fibers in the paw skin. Skin from CFA+saline rats contained many intense GLU-IR and GT-IR fibers.
(§3) For immunohistochemical localization of GT, rats at 3, 7, and 10 days (n=6 CFA/time pt; n=4 control/time pt; n=3 additional controls) were anesthetized with sodium pentobarbital (90 mg/kg) and transcardially perfused with fixative: 0.2% paraformaldehyde (PFA), […] (PA) in 0.1M phosphate buffer, pH 7.4 [Miller et al, 1993, 2002]. Right and left L4DRG's and hindpaws were removed and placed overnight in fixative at 4° C.; the PFA concentration was increased to 2% for post-fixation [Miller et al, 1993, 2002]. Additional control rats (n=3) were perfused transcardially with 4% PFA in 0.1M Sorenson's phosphate buffer, pH 7.4. DRG's were removed and placed in fixative overnight at 4° C. All tissues were transferred to 20% sucrose in 0.1M Sorenson's phosphate buffer, pH 7.4 for 24-96 hr. at 4° C. The tissue was frozen, sectioned at 20 μm in a cryostat, thaw mounted onto gelatin coated slides, and dried for 1 hr. at 37° C. […]

[5] = system: GT-IR fibers in the paw skin; test: Glutaminase immunohistochemistry of hindpaw skin after CFA inflammation; type: in vivo, rat; conditions: CFA + inhibitor, skin after 7 days; control very little, CFA+saline many intense fibers
Protocol: as §2, §3

[6] = BB 200 μM/25 μl at day three following CFA inflammation
[7] = NEM 10 mM/25 μl at day three following CFA inflammation
[8] = P-CoA 2 mM/25 μl at day three following CFA inflammation

Which “long term pain relief to pressure (mechanical stimulation)” value (shortened to “long term pain relief to pressure”) [1, 6] does the source give for `Cc1c(C2(c3cc(C(C)C)c(O)c(Br)c3C)OS(=O)(=O)c3ccccc32)cc(C(C)C)c(O)c1Br` [BB, bromothymol blue] here?
The value was “pain relief on Day 5”.

And the “long term pain relief to heat (thermal stimulation)” value (“long term pain relief to heat” for short) [2, 6]?
The value was “pain relief from Days 5-7 and at near normal levels from Days 6 and 7”.

How did the “pressure responses (allodynia) as inflammation progressed” value ([3]; dicoumarol 15 μl @ 500 μM i.t. on days 0, 1 and 2, CFA at Day 0, data not shown) turn out when `O=c1oc2ccccc2c(O)c1Cc1c(O)c2ccccc2oc1=O` [DC, dicoumarol] was run?
Its value is “less hyperalgesic and allodynic”.

What about the “Thermal latencies (hyperalgesia) as inflammation progressed” value ([2]; dicoumarol 15 μl @ 500 μM i.t. on days 0, 1 and 2, CFA at Day 0) of the same compound?
The value was “less hyperalgesic”.

How did the “pressure responses after intrathecal inhibitor” value [3] turn out when `[N-]=[N+]=CC(=O)CC[C@H](N)C(=O)O` [DON, 6-diazo-5-oxo-L-norleucine] was run?
Its value is “near normal pressure responses for several days”.

And the “pressure sensitivity in normal rats” value (hindpaw of normal rats)?
Its value is “same as saline controls”.

What about the “thermal sensitivity in normal rats” value (hindpaw of normal rats) of the same compound?
The value was “same as saline controls”.

What about the “Paw pressure withdrawal thresholds (PPWT)” value ([1]; CFA+DON rats, 25 μl into right paw after 2-3 days, from 6 hours through the duration of the experiment) of the same compound?
Its value is 20 to 30 g.

And the “dose response for pain relief from pressure, area under the curve Day 3 to Day 5” value ([1]; DON 0.1-10 μMole/25 μl)?
The value was “No differences in the amount of pain relief”.

And the “long term pain relief to pressure” value ([1]; DON 0.1-10 μMole/25 μl, three doses, at day three following CFA inflammation)?
The value was “pain relief occurred for several days”.

And the “GLU-IR fibers in hindpaw skin” value [4]?
The value was “reduced to near normal levels; also recorded: moderate numbers”.

And the “GT-IR fibers in hindpaw skin” value [5]?
The value was “moderate numbers”.

What about the “dose response for pain relief from thermal stimulation, area under the curve Day 3 to Day 5” value ([2]; DON 0.1-10 μMole/25 μl) of the same compound?
The value was “most efficacious at the higher doses”.

What about the “long term pain relief to heat” value ([2]; DON 0.1-10 μMole/25 μl, all three doses, at day 3 after CFA inflammation) of the same compound?
Its value is “pain relief occurred for several days”.

What about the “pain relief to heat (thermal responses)” value ([2]; DON 0.1 and 1 μMole at day 3 after CFA inflammation) of the same compound?
The value was “pain relief to near normal levels for at least one day”.

What about the “pain relief to heat (thermal responses)” value ([2]; DON 10 μMole at day 3 after CFA inflammation) of the same compound?
The value was “bringing thermal responses back to normal for two days”.

How did the “pressure responses after intrathecal inhibitor” value [3] turn out when `O=C(O)CF` [FA, fluoroacetate] was run?
Its value is “near normal pressure responses for several days”.

Which “pressure responses after intrathecal inhibitor” value [3] does the source give for `CS(=N)(=O)CC[C@H](N)C(=O)O` (stereo partly drawn) [MSO, methionine sulfoximine] here?
Its value is “near normal pressure responses for several days”.

And the pressure responses ([1]; MSO injected into inflamed hindpaw at Day 3, one-time, over several days, before inflammation ~70 gms, after ~10 gms)?
Its pressure responses is about 50 gms.

What about the Thermal responses ([2]; MSO injected into inflamed hindpaw at Day 3, one-time, before inflammation ~9 sec, after ~3 sec) of the same compound?
The Thermal responses was “near normal levels by day 6 through day 9”.

Which “Paw pressure withdrawal thresholds (PPWT)” value ([1]; CFA+NEM rats, after 48 hours) does the source give for `CCN1C(=O)C=CC1=O` [NEM, N-ethylmaleimide] here?
The value was 20 to 25 g.

What about the “long term pain relief to pressure” value [1, 7] of the same compound?
Its value is “pain relief occurred for several days”.

And the “GLU-IR fibers in hindpaw skin” value [4]?
The value was “reduced to near normal levels; also recorded: moderate numbers”.

And the “GT-IR fibers in hindpaw skin” value [5]?
The value was “moderate numbers”.

What about the “long term pain relief to heat” value [2, 7] of the same compound?
Its value is “pain relief occurred to near normal levels at days four and six”.

Which results are given for `CCCCCCCCCCCCCCCC(=O)SCCNC(=O)CCNC(=O)[C@H](O)C(C)(C)COP(=O)(O)OP(=O)(O)OC[C@H]1O[C@@H](n2cnc3c(N)ncnc32)[C@H](O)[C@@H]1OP(=O)(O)O` [P-CoA, Palmitoyl Coenzyme A]?
long term pain relief to pressure (mechanical stimulation) [1, 8]: pain relief from Days 4-7; long term pain relief to heat (thermal stimulation) [2, 8]: pain relief to near normal levels from Days 4-7
